According to the pKa sets of Baltruschat and Czodrowski (2020):

Settings: basic group

Structure (SMILES) | pKa
C[C@H](N)C(=O)[O-] | 9.72
CCC(=O)C(CC(C)N1CCOCC1)(c1ccccc1)c1ccccc1 (configuration not stated) | 6.89
O=[Se](O)c1ccccc1 | -0.9
CCCN(CCC)CC(=O)NC1c2ccccc2-c2ccccc21 | 7.28
CC(=O)N(N=C(C)C)C1CCN(C)CC1 | 8.6
N#CC(C#N)=NNc1ccccc1[N+](=O)[O-] | -0.76
C[C@@H]1CC[C@H]2CC[C@H](C)N21 | 11.5
Cc1ccc(O)c2ncccc12 | 5.29
O=C(CCCN1CCOCC1)c1ccccc1 | 7.26
Cn1cc[nH+]c1N=[N+]=[N-] | 0.5
CCN(C)CCOCCN(C)C | 9.65
CCCCCCCCCCN | 10.6
Nc1n[nH]c(N)c1/N=N/c1ccccc1O | 3.51
O=[N+]([O-])c1ccc([O-])c(CN2CCOCCOCCOCCOCCOCC2)c1 | 9.59
CCCN1CC(O[Si](C)(C)C)C1 | 8.89
CN(C)c1cccc2c(S(=O)(=O)[N-]CCN3CCNCCNCCNCC3)cccc12 | 11.8
CC(C)N1C[Si](C)(C)O[Si](C)(C)C1 | 10
[NH3+]CC(=O)NCCc1c[nH]cn1 | 6.76
CCOC(C)=N | 7.15
C[NH+](C)CCCNc1c2ccccc2nc2c(Cl)ccc([N+](=O)[O-])c12 | 5
NCc1ccc(Cl)c(N)c1 | 9.33
Nc1ccc([NH3+])cc1 | 2.86

Structure (SMILES) | pKa
NCCCCCCO | 10.6
Nc1ccc(-c2ccccc2)cc1 | 4.38
CCNc1ccccc1C | 4.92
[NH3+]Cc1cccnc1 | 3.71
CC(=O)NN=C1CCN(C)CC1 | 7.45
OCCN1CCOCC1 | 7.18
Nc1nnnn1-c1ccccc1 | 1.12
CN(CCO)c1ccccc1 | 4.89
NNCCCc1ccccc1 | 7.2
CN(C)O | 5.2
COc1cccc(Nc2ccccc2)c1 | 0.37
[NH3+]CCCc1ccncc1 | 5.51
OC[C@@H]1O[C@H](n2cnc3c2ncn2ccnc32)[C@@H](O)[C@H]1O | 4.1
NCCCCNCCCN | 10.6
Cc1cc(C)c2ccccc2n1 | 5.11
Nc1ncnc2[nH]cnc12 | 4.26
c1ccc(CNc2ncnc3[nH]ncc23)cc1 | 4.16
CNNC1CC[NH+](C)CC1 | 5.95
CN(C)c1ccc(/N=N/c2ccccn2)cc1 | 4.5
CC(=O)Oc1cccc2cccnc12 | 3.3
CCOC(=O)c1cnc2c([N+](=O)[O-])cccc2c1[O-] | 8.9
N/C(=N\O)C(N)c1ccccc1 (configuration not stated) | 7.15

Structure (SMILES) | pKa
CC(C[NH3+])/C(N)=N/O (configuration not stated) | 3.65
O=C(Cc1ccccn1)c1ccccc1 | 4.53
[O-]c1c(Cl)cc(Cl)c(Cl)c1CN1CCCCC1 | 10.3
c1c[nH]cn1 | 7.07
NCC(=O)NN | 7.69
C[C@@H]1CC[C@@H]2CC[C@H](C)N21 | 10.2
Cc1n[nH]c2c(N)cccc12 | 3.18
Nc1nnnn1-c1ccc(Cl)cc1 | 0.78
CCN(c1ccccc1)C(C)(C)C | 8.02
CN(C)[C@H]1CC[C@@H](C)CC1 | 10.5
CN(C)CCCN(C)C(=O)/C=N/[O-] | 9.83
Cc1n[nH]c2ccc(N)cc12 | 5.25
Cc1cc([S-])nc([S-])n1 | 12
[NH3+]c1ccc(-c2ncc(-c3ccccc3)o2)cc1 | 0.06
O=C([O-])C1CCCCN1 (configuration not stated) | 10.6
Cc1ccc(Cl)cc1/C(=N/CCC[NH+](C)C)c1ccccc1 | 3.87
CCNc1ncnc2[nH]ncc12 | 4.6
c1cnc2c(c1)ccc1[nH+]cccc12 | 1
CCOc1ccc2[nH]cnc2c1 | 5.57
CCC(O)CN(CC(O)CC)C(C)(C)C (configuration not stated) | 9.6
CN(C)c1ncc2[nH]cnc2n1 | 4.02
CN(CC1CO1)CC1CO1 (configuration not stated) | 6.45

Structure (SMILES) | pKa
O=S(=O)([O-])c1ccncc1 | 3.44
c1cc(N2CCOCC2)ccc1N1CCCCC1 | 6.7
c1ccc(-c2cc3c(-c4ccccc4)ccnc3c3ncccc23)cc1 | 4.69
CC(C)NCCN | 10.6
CC(C)(N)C#N | 5.3
CCCCCCCCCCCCCCCCN | 10.6
CCOC(=O)C1(c2ccccc2)CCN(CC)CC1 | 9.03
CCCCCN(CC(C)O)CC(O)CC (configuration not stated) | 9.1
COc1ccccc1N | 4.51
CC(=O)CCN1CCOCC1 | 6.66
CSC(=N)Nc1ccccc1 | 7.14
COc1cc(C)n(-c2ccccc2)n1 | 1.5
CC(C)(C)CC(C)(C)N | 10.8
CCCN(C)N | 7.35
CN(C)c1ccc2c(c1)Sc1cc([NH+](C)C)ccc1N2 | 5.27
[O-]c1ccnc([S-])n1 | 12.7
CC/C=C/CC1=NC(C(=O)[O-])[C@@H]2SC(C)(C)C(C(=O)[O-])N12 (some centres not stated) | 7.8
CN(C)CC[Se-] | 10.8
CC(C)C1CC(CC(=O)[O-])NC1C(=O)[O-] (configuration not stated) | 10.4
CCCSCCN | 9.43
C[NH2+]CCN(C)CC[NH3+] | 3.38
